In article PMC10777983, “The Optimization of Assay Conditions and Characterization of the Succinic Semialdehyde Dehydrogenase Enzyme of Germinated Tartary Buckwheat” (Foods, 2023):

System: T1, SSADH (succinic semialdehyde dehydrogenase) of germinated Tartary buckwheat
T1 construct: NAD+-dependent (printed EC 1.2.1.79 is the NADP+ class)
Assay: NADH formation at […] nm, Lineweaver-Burk
Format: biochemical, Fagopyrum tataricum
Conditions: 1 mmol/L EDTA, 20 mmol/L beta-mercaptoethanol, 1 mmol/L PMSF, partially purified enzyme

A Km (2 mmol/L NAD+, 1/15 mol/L PBS pH 8.6 (b78 prints mmol/L), 30 °C) of about 235 µM was found for O=CCCC(=O)O [SSA] in this work.
A Km (0.2 mmol/L SSA fixed, PBS pH 8.6, 30 °C) of 636 µM was found for NC(=O)c1ccc[n+]([C@@H]2O[C@H](COP(=O)(O)OP(=O)(O)OC[C@H]3O[C@@H](n4cnc5c(N)ncnc54)[C@H](O)[C@@H]3O)[C@@H](O)[C@H]2O)c1 [NAD^+] in this work.
